Test results reported in patent publication US20240182453A1, “NOVEL SUBSTITUTED PYRAZINE-CARBOXAMIDE DERIVATIVES” (Boehringer Ingelheim International GmbH, priority 2022, published 2024).

What follows are molecules tested against human metabotropic Glutamate 4 receptor (mGluR4) (Homo sapiens (Human), UniProt Q14833) (assay: Assay A: in vitro testing of mGluR4 potency (glutamate-induced cAMP lowering, HTRF cAMP)). Settings: HEK293 cells overexpressing human mGluR4; 10 uM L-glutamic acid, 1 uM forskolin; compounds of the present invention.
Sequence of human metabotropic Glutamate 4 receptor (mGluR4) (Q14833 33-912): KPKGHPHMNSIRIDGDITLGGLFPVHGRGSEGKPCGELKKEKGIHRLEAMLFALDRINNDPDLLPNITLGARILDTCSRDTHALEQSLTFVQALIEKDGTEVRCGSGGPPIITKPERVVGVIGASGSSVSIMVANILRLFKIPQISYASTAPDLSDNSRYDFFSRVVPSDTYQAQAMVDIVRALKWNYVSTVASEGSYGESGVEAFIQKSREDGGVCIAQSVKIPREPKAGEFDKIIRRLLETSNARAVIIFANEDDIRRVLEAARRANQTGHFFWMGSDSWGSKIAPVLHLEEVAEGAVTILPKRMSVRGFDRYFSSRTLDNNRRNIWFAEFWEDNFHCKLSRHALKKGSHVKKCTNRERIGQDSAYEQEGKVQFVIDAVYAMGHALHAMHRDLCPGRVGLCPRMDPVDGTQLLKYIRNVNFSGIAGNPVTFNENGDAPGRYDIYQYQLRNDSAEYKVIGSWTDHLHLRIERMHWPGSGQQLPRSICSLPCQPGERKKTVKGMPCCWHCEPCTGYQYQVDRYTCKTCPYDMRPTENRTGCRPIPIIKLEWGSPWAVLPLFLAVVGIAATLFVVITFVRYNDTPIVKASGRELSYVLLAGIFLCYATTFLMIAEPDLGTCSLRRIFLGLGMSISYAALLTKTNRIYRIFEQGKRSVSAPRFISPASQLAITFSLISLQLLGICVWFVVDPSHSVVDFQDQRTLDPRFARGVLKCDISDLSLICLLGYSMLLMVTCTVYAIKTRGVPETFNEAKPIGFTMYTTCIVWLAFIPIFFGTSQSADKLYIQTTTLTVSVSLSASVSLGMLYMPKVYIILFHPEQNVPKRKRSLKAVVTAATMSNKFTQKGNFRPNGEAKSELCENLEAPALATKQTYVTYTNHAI
Type: cell-based
Method: A. In Vitro Testing of mGluR4 Potency
The in vitro activity of the compounds according to the invention may be investigated as follows:
The HEK293 cell overexpressing the human metabotropic Glutamate 4 receptor are thawed at 37° C. and immediately diluted with cell culture medium. After centrifugation, the cell pellet is re-suspended in medium and then distributed from a stirred spinner flask into the wells of the assay plate. The plates are incubated for one hour at room temperature before they are incubated for 24 hours at 37° C./5% CO2. After washing the cells in the plate three times with 80 uL HBSS/HEPES buffer (10 uL buffer remained in the wells after washing), 5 uL per well of compounds diluted in HBSS/HEPES buffer containing 0.2% BSA (final concentration: 0.1%) and 1 mM IBMX (final concentration: 0.5 mM) are added to the wells of the assay plate. Thereafter 5 uL per well of L-Glutamic acid (final concentration: 10 uM), forskolin (final concentration: 1 uM) and 1 mM IBMX (final concentration: 0.5 mM) dissolved in HBSS/HEPES buffer containing 0.2% BSA (final concentration: 0.1%) are added to the assay plate (final DMSO concentration: 1%). Several wells of the assay plate are used either for the positive and the negative controls or for the cAMP standard curve. The assay plate is incubated for 30 minutes at room temperature. Then 5 ul per well of Anti-cAMP-Antibody-d2 solution and 5 ul per well of cAMP-Europium Cryptate dilution are added to all wells of the plate and the plate is incubated another 60 minutes light protected at room temperature. The emission at 615 nm and 665 nm (Excitation wavelength: 320 nm) are measured on the EnVision™ reader (Perkin Elmer). The ratio between the emission at 665 nm and 615 is calculated by the reader. The whole assay is performed in the dark or under green light.
The cAMP standard is prepared by diluting the cAMP stock solution with HBSS/Hepes buffer: 5 μl/well of the cAMP dilutions (in HBSS/Hepes buffer containing 1 mM IBMX and 0.2% BSA—final concentration: 0.5 mM IBMX and 0.1% BSA) are added to 10 ul/well HBSS/Hepes buffer plus 5 ul/well 4% DMSO in HBSS/Hepes containing 0.2% BSA (final DMSO concentration: 1%—like in the wells containing compounds) in the wells of the assay plate. The final cAMP concentrations in the assay plate are: 0, 0.17, 0.69, 2.78, 11.1, 44.5, 178, and 712 nM (two wells/cAMP concentration).
Each assay microtiter plate contained also wells with vehicle controls instead of compound as controls for L-Glutamic acid induced signal (negative control; 100% CTL; 10 uM L-Glutamic acid+1 uM forskolin+0.5 mM IBMX+1% DMSO) and wells with vehicle controls without L-Glutamic acid as controls for non-specific changes in signal (positive control; 0% CTL; 0 uM L-Glutamic acid+1 uM forskolin+0.5 mM IBMX+1% DMSO).
The analysis of the data is performed by the calculation the ratio between the emission at 665 nm and the emission at 615 nm (Em665/Em615 ratio). Thereafter the signals of the compounds are normalized using the positive and negative controls by the following formula:
PoC=100×((Signal Sample−Positive Control)/(Negative Control−Positive Control))
`Cc1cnc(C(=O)N[C@H](c2nc3cc(F)ccc3n2C)C(C)C)cn1` [Example 64, N-[(1S)-1-(5-fluoro-1-methyl-1H-1,3-benzodiazol-2-yl)-2-methylpropyl]-5-methylpyrazine-2-carboxamide] showed an IC50 of 19 nM. In the case of `CCn1c([C@@H](NC(=O)c2cnc(C(F)F)cn2)C(C)(C)O)nc2cc(F)ccc21` [Example 65, 5-(difluoromethyl)-N-[(1R)-1-(1-ethyl-5-fluoro-1H-1,3-benzodiazol-2-yl)-2-hydroxy-2-methylpropyl]pyrazine-2-carboxamide], the IC50 is reported as 16 nM. `Cc1cnc(C(=O)N[C@H](c2nc3cc(F)ccc3n2C)C2CC2)cn1` [Example 51, N-[(S)-cyclopropyl(5-fluoro-1-methyl-1H-1,3-benzodiazol-2-yl)methyl]-5-methylpyrazine-2-carboxamide] gave an IC50 of 28 nM. `CCn1c([C@@H](NC(=O)c2cnc(C)cn2)C2CC2)nc2cc(OC(F)(F)F)ccc21` [Example 46, N-[(S)-cyclopropyl[1-ethyl-5-(trifluoromethoxy)-1H-1,3-benzodiazol-2-yl]methyl]-5-methylpyrazine-2-carboxamide] gave an IC50 of 2 nM. In the case of `COCCn1c(C(NC(=O)c2cnc(C(F)F)cn2)C2CCOC2)nc2cc(C(F)(F)F)ccc21` (stereo not drawn) [Example 90-3], the IC50 is reported as 13 nM. For `O=C(N[C@@H](CC1CC1)c1nc2cc(F)c(F)cc2n1C1CC1)c1cnc(C(F)F)cn1` [Example 118, N-[(1S)-2-cyclopropyl-1-(1-cyclopropyl-5,6-difluoro-1H-1,3-benzodiazol-2-yl)ethyl]-5-(difluoromethyl)pyrazine-2-carboxamide], the IC50 was 14 nM. `COCCn1c([C@@H](NC(=O)c2cnc(C(F)F)cn2)C2CC2)nc2cc(F)ccc21` [Example 5, N-[(S)-cyclopropyl[5-fluoro-1-(2-methoxyethyl)-1H-1,3-benzodiazol-2-yl]methyl]-5-(difluoromethyl)pyrazine-2-carboxamide] was tested, and the IC50 was 5 nM. With `CCn1c([C@@H](NC(=O)c2cnc(C)cn2)C2CC2)nc2cc(Cl)ccc21` [Example 25, N-[(S)-(5-chloro-1-ethyl-1H-1,3-benzodiazol-2-yl)(cyclopropyl)methyl]-5-methylpyrazine-2-carboxamide] the IC50 was 3 nM. For `Cc1cnc(C(=O)N[C@@H](CC2CC2)c2nc3cc(Cl)ccc3n2C)cn1` [Example 86, N-[(1S)-1-(5-chloro-1-methyl-1H-1,3-benzodiazol-2-yl)-2-cyclopropylethyl]-5-methylpyrazine-2-carboxamide], the IC50 was 10 nM. `Cn1c([C@@H](NC(=O)c2cnc(C(F)F)cn2)C2CC2)nc2cc(Cl)ccc21` [Example 55, N-[(S)-(5-chloro-1-methyl-1H-1,3-benzodiazol-2-yl)(cyclopropyl)methyl]-5-(difluoromethyl)pyrazine-2-carboxamide] was tested, and the IC50 was 7 nM. `COCCn1c(C(NC(=O)c2cnc(C)cn2)C2CCCO2)nc2cc(C(F)(F)F)ccc21` (stereo not drawn) [Example 19-2, N-{[1-(2-methoxyethyl)-5-(trifluoromethyl)-1H-1,3-benzodiazol-2-yl](oxolan-2-yl)methyl}-5-methylpyrazine-2-carboxamide] was tested, and the IC50 was 62 nM. `Cc1cnc(C(=O)N[C@H](c2nc3cc(C(F)(F)F)ccc3n2C)[C@H]2CCCO2)cn1` (single isomer, unassigned) [Example 56] gave an IC50 of 13 nM. `Cc1cnc(C(=O)N[C@H](c2nc3cc(C)c(F)cc3n2C)C2CC2)cn1` [Example 96, N-[(S)-cyclopropyl (6-fluoro-1,5-dimethyl-1H-1,3-benzodiazol-2-yl)methyl]-5-methylpyrazine-2-carboxamide] gave an IC50 of 15 nM. Molecule `COCCn1c([C@@H](NC(=O)c2cnc(C)cn2)[C@@H](C)OC)nc2cc(OC(F)(F)F)ccc21` [Example 2, N-[(1R,2R)-2-methoxy-1-[1-(2-methoxyethyl)-5-(trifluoromethoxy)-1H-1,3-benzodiazol-2-yl]propyl]-5-methylpyrazine-2-carboxamide] has an IC50 of 2 nM. In the case of `COCCn1c([C@@H](NC(=O)c2cnc(C(F)F)cn2)[C@H]2CCOC2)nc2cc(C(F)(F)F)ccc21` [Example 102, 5-(difluoromethyl)-N-[(S)-[1-(2-methoxyethyl)-5-(trifluoromethyl)-1H-1,3-benzodiazol-2-yl][(3R)-oxolan-3-yl]methyl]pyrazine-2-carboxamide], the IC50 is reported as 13 nM. `CCn1c(C(NC(=O)c2cnc(C)cn2)C2CCOC2)nc2ccc(Cl)cc21` (single isomer, unassigned) [Example 163, N-[(6-chloro-1-ethyl-1H-1,3-benzodiazol-2-yl)(oxolan-3-yl)methyl]-5-methylpyrazine-2-carboxamide] showed an IC50 of 27 nM. With `COCCn1c([C@@H](NC(=O)c2cnc(C(F)(F)F)cn2)[C@@H](C)OC)nc2cc(OC(F)(F)F)ccc21` [Example 124, N-[(1R,2R)-2-methoxy-1-[1-(2-methoxyethyl)-5-(trifluoromethoxy)-1H-1,3-benzodiazol-2-yl]propyl]-5-(trifluoromethyl)pyrazine-2-carboxamide] the IC50 was 4 nM. `CCn1c([C@@H](NC(=O)c2cnc(C)cn2)[C@@H]2CCOC2)nc2cc(C(F)(F)F)ccc21` [Example 140, N-[(S)-[1-ethyl-5-(trifluoromethyl)-1H-1,3-benzodiazol-2-yl][(3S)-oxolan-3-yl]methyl]-5-methylpyrazine-2-carboxamide] showed an IC50 of 12 nM. For `COCCn1c([C@@H](NC(=O)c2cnc(C)cn2)C2CC2)nc2c(C)c(C#N)ccc21` [Example 18, N-[(S)-[5-cyano-1-(2-methoxyethyl)-4-methyl-1H-1,3-benzodiazol-2-yl](cyclopropyl)methyl]-5-methylpyrazine-2-carboxamide], the IC50 was 7 nM. With `CCn1c([C@@H](NC(=O)c2cnc(C)cn2)C(C)(C)O)nc2cc(F)ccc21` [Example 39, N-[(1R)-1-(1-ethyl-5-fluoro-1H-1,3-benzodiazol-2-yl)-2-hydroxy-2-methylpropyl]-5-methylpyrazine-2-carboxamide] the IC50 was 28 nM. For `COCCn1c([C@@H](NC(=O)c2cnc(C)cn2)[C@@H]2CCOC2)nc2cc(Cl)ccc21` [Example 91, N-[(S)-[5-chloro-1-(2-methoxyethyl)-1H-1,3-benzodiazol-2-yl][(3S)-oxolan-3-yl]methyl]-5-methylpyrazine-2-carboxamide], the IC50 was 11 nM. For `CCn1c([C@@H](NC(=O)c2cnc(C)cn2)C(C)(C)O)nc2cc(C(F)(F)F)ccc21` [Example 104, N-[(1R)-1-[1-ethyl-5-(trifluoromethyl)-1H-1,3-benzodiazol-2-yl]-2-hydroxy-2-methylpropyl]-5-methylpyrazine-2-carboxamide], the IC50 was 17 nM. Work on `COCCn1c([C@@H](NC(=O)c2cnc(C(F)F)cn2)[C@@H]2CCCO2)nc2cc(OC(F)(F)F)ccc21` [Example 40, 5-(difluoromethyl)-N-[(R)-[1-(2-methoxyethyl)-5-(trifluoromethoxy)-1H-1,3-benzodiazol-2-yl][(2S)-oxolan-2-yl]methyl]pyrazine-2-carboxamide] yielded an IC50 of 2 nM. For `COCCn1c([C@@H](NC(=O)c2cnc(C)cn2)[C@H]2CCCO2)nc2cc(C(F)(F)F)ccc21` (single isomer, unassigned) [Example 71], the IC50 was 13 nM. `CCn1c(C(NC(=O)c2cnc(C)cn2)C2CCOC2)nc2cc(OC(F)(F)F)ccc21` (single isomer, unassigned) [Example 97-1, N-{[1-ethyl-5-(trifluoromethoxy)-1H-1,3-benzodiazol-2-yl](oxolan-3-yl)methyl}-5-methylpyrazine-2-carboxamide] showed an IC50 of 12 nM. In the case of “5-(difluoromethyl)-N-[(1S)-1-(1-ethyl-5-fluoro-1H-1,3-benzodiazol-2-yl)-2-methylpropyl]pyrazine-2-carboxamide [Example 59]”, the IC50 is reported as 4 nM. Molecule `Cc1cnc(C(=O)N[C@H](c2nc3cc(F)c(Br)cc3n2C)C2CC2)cn1` [Example 110, N-[(S)-(6-bromo-5-fluoro-1-methyl-1H-1,3-benzodiazol-2-yl)(cyclopropyl)methyl]-5-methylpyrazine-2-carboxamide] has an IC50 of 14 nM.
